Article PMC6407917, “Identification of GSK3186899/DDD853651 as a Preclinical Development Candidate for the Treatment of Visceral Leishmaniasis” (Journal of Medicinal Chemistry, 2018)

Legend:
Assay in all cases: biochemical
Set-up in all cases: species or system HEK293/K-562/placenta mixed human extract; Kinobeads chemoproteomic competition binding, quantified by TMT LC-MS/MS, dose response up to 20 uM
[1] = biological target: ACVR1B (Homo sapiens, UniProt P36896)
[2] = biological target: CSNK1A1 (Homo sapiens, UniProt P48729)
[3] = biological target: EIF2AK1 (Homo sapiens, UniProt Q9BQI3)
[4] = biological target: EPHA2 (Homo sapiens, UniProt P29317)
[5] = biological target: EPHB2 (Homo sapiens, UniProt P29323)
[6] = biological target: EPHB3 (Homo sapiens, UniProt P54753)
[7] = biological target: HIPK2 (Homo sapiens, UniProt Q9H2X6)
[8] = biological target: IRAK1 (Homo sapiens, UniProt P51617)
[9] = biological target: ITK (Homo sapiens, UniProt Q08881)
[10] = biological target: LRRK2 (Homo sapiens, UniProt Q5S007)
[11] = biological target: MAPK11 (Homo sapiens, UniProt Q15759)
[12] = biological target: MERTK (Homo sapiens, UniProt Q12866)
[13] = biological target: MKNK2 (Homo sapiens, UniProt Q9HBH9)
[14] = biological target: PIM3 (Homo sapiens, UniProt Q86V86)
[15] = biological target: PLK4 (Homo sapiens, UniProt O00444)
[16] = biological target: PRKCD (Homo sapiens, UniProt Q05655)
[17] = biological target: RB1CC1 (Homo sapiens, UniProt Q8TDY2)
[18] = biological target: ROCK2 (Homo sapiens, UniProt O75116)
[19] = biological target: RPS6KA5 (Homo sapiens, UniProt O75582)
[20] = biological target: STK16 (Homo sapiens, UniProt O75716)
[21] = biological target: YWHAZ (Homo sapiens, UniProt P63104)

Measured: IC50

Chain of EPHB2 (P29323 whole entry): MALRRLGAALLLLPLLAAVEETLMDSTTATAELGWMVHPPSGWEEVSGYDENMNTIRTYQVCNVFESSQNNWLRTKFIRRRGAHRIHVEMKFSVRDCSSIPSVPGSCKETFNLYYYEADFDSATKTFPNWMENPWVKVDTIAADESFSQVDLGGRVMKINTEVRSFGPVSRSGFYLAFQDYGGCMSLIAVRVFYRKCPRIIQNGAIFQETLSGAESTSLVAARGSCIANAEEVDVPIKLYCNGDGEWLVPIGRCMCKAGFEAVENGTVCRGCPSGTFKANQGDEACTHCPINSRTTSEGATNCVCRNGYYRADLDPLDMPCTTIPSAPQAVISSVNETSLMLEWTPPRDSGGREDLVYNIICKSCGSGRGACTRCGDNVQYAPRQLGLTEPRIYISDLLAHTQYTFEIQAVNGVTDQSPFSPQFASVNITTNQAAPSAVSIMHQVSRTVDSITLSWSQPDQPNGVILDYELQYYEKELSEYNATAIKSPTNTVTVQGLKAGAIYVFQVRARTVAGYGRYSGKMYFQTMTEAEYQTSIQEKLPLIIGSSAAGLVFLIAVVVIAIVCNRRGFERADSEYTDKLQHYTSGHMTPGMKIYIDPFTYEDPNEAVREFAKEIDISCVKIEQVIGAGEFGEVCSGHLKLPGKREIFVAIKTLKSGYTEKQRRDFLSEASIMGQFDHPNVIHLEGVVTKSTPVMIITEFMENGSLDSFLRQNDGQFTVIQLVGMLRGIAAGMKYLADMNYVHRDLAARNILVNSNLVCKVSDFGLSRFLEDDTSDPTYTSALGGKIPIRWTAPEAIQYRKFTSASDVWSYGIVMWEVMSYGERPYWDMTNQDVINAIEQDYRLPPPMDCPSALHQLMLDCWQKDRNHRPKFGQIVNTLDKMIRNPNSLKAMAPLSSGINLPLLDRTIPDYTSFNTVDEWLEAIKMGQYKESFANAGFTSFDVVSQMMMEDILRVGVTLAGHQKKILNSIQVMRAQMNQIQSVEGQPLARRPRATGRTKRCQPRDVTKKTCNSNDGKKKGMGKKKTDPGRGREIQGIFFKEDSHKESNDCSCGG
Chain of PLK4 (O00444 whole entry): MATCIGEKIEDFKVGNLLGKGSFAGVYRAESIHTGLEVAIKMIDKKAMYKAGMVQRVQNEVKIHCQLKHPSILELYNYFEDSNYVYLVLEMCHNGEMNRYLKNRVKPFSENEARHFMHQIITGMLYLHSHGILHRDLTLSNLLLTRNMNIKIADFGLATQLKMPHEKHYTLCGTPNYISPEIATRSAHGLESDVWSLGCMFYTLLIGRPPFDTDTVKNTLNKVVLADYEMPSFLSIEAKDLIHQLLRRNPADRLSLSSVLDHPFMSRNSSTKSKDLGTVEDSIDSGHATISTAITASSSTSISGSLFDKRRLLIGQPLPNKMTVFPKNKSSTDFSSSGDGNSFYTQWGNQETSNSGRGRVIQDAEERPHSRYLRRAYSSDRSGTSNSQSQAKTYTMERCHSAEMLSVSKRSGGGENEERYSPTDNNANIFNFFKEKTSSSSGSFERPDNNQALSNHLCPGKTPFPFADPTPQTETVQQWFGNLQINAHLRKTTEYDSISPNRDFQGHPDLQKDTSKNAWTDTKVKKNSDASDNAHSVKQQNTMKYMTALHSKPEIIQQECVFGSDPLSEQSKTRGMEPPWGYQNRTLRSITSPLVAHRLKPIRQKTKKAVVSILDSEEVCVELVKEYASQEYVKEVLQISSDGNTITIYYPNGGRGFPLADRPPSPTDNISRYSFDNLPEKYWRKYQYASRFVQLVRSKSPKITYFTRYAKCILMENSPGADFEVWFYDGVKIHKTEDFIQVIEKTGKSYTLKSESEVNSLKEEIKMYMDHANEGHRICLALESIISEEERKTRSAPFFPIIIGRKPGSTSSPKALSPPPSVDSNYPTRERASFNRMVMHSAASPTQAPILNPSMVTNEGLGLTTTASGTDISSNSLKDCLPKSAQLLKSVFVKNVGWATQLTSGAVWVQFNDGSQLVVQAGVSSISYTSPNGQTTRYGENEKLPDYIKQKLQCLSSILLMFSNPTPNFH
Chain of YWHAZ (P63104 whole entry): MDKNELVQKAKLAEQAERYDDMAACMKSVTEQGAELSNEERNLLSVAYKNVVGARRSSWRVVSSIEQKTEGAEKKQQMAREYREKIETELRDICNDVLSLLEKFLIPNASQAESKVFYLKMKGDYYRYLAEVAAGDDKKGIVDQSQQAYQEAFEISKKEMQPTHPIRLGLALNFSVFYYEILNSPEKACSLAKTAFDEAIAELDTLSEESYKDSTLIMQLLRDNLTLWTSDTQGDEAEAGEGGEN
Chain of EPHA2 (P29317 whole entry): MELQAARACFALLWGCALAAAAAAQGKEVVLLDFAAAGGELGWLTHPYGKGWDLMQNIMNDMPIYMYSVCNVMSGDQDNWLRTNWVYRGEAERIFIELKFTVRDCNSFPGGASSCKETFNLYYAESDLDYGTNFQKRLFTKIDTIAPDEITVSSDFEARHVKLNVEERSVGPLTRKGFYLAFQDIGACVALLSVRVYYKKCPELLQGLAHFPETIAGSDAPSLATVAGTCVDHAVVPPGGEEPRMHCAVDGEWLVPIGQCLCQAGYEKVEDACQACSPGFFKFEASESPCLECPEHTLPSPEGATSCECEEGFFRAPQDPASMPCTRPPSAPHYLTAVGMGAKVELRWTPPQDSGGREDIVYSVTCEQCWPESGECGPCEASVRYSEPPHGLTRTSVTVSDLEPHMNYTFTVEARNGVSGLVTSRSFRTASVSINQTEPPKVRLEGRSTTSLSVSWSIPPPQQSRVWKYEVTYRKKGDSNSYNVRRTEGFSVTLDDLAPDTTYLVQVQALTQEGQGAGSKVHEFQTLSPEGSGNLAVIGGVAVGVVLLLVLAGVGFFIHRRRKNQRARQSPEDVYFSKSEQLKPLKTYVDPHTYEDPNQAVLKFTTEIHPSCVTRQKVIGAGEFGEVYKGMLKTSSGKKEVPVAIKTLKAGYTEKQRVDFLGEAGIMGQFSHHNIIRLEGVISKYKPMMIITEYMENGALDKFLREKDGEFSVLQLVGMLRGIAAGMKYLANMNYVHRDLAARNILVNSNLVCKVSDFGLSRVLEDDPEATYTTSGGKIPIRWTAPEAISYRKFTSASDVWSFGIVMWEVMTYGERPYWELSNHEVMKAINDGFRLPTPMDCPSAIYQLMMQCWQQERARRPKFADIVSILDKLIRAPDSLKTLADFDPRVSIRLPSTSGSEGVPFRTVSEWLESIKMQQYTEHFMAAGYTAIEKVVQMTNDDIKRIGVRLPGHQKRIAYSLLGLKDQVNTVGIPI
Chain of RB1CC1 (Q8TDY2 whole entry): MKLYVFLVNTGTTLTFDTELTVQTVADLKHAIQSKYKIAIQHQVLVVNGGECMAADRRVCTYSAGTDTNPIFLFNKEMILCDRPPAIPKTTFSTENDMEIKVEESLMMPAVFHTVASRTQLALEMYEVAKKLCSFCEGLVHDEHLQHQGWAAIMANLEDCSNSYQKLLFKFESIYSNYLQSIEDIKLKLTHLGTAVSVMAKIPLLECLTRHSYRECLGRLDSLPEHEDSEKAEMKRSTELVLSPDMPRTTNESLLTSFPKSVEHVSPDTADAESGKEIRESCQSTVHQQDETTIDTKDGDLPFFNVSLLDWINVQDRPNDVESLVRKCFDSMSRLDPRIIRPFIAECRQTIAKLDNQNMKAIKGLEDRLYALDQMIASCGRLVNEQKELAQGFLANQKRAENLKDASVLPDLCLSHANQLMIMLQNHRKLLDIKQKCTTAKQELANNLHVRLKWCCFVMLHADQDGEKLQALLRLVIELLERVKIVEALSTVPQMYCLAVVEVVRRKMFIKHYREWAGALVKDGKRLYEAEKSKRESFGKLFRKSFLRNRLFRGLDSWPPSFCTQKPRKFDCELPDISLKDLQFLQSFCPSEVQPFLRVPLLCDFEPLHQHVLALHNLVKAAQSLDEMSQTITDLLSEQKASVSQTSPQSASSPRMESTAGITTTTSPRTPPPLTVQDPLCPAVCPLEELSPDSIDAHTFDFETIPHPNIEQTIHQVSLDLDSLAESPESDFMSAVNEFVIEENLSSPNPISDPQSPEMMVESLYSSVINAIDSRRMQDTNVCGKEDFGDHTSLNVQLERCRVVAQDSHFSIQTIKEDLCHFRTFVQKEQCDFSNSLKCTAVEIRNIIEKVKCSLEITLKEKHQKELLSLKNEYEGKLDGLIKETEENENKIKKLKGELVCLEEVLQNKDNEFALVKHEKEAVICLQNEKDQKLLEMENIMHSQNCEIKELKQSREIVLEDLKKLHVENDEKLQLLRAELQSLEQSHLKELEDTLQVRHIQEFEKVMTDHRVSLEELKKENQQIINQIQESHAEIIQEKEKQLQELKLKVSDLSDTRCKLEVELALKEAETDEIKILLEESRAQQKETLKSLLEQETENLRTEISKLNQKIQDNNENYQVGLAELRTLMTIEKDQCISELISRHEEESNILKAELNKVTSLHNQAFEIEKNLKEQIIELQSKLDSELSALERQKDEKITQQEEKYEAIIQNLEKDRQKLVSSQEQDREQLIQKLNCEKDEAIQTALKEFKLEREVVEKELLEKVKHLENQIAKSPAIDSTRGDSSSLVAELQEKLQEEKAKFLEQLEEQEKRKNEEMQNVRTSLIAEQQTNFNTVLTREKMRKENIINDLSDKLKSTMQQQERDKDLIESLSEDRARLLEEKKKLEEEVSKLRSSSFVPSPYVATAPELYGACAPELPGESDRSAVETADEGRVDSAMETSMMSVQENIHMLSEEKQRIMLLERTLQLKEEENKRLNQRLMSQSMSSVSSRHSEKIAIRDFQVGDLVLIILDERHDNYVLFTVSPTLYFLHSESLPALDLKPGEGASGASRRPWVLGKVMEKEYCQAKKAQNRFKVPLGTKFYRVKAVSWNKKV

COc1nc(N[C@H]2CC[C@H](NS(=O)(=O)CC(C)C)CC2)nc2[nH]nc(N3CCOC[C@H]3C)c12 [compound 39, N-(trans-4-((4-Methoxy-3-((R)-3-methylmorpholino)-1H-pyrazolo[3,4-d]pyrimidin-6-yl)amino)cyclohexyl)-2-methylpropane-1-sulfonamide]
≥ 20 µM: all assays above
